Measured values: patent US11453632B2, “1-phenyl-2-phenylethane derivative” (KAO CORPORATION, priority 2018, dated 2022)

Key:
[1] = target: T1, ERα LBD (Homo sapiens, UniProt P03372); experiment: Ability to bind to ERα: pBIND-ERα LBD / GAL4 luciferase reporter in HEK293 cells; type: cell-based; parameters: key: firefly luciferase / Renilla luciferase luminescence ratio; conditions: negative control 0.00847035
T1 construct: host or cells: HEK293
T1 sequence (P03372 311-547 limits assumed): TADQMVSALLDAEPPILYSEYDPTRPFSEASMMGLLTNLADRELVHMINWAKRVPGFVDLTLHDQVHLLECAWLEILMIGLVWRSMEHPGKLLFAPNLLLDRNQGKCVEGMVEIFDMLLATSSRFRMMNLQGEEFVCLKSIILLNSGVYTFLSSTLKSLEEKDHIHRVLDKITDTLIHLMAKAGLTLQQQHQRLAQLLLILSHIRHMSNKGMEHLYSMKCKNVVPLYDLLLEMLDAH
Protocol: (§1) A human kidney-derived cell line HEK293 was cultured (37° C., 5% CO2) in Dulbecco's modified Eagle medium (hereinafter, abbreviated to DMEM) containing 10% (v/v) fetal bovine serum (FBS) and penicillin/streptomycin.
(§2) 2) Measurement of Binding Activity Against ERs
(§3) Specifically, HEK293 cells were inoculated at a cell density of 4.0×10^4 cells/well to a 96-well plate. After 12 hours therefrom, the medium was replaced with a culture solution (DMEM containing 5% (v/v) charcoal-treated serum). The cells were cotransfected with pBIND-ERα for the expression of ERα LBD or pBIND-ERβ for the expression of ERβ LBD (Promega Corp.) and pGL4.35[luc2P/9XGAL4UAS/Hygro](Promega Corp.) using Lipofectamine 2000 (Invitrogen Corp.) according to the protocol attached to the product. 24 hours after transfection, the medium was replaced with a culture solution containing a test sample, followed by culture for another 24 hours. The activity measurement of firefly luciferase (index for the ligand binding activity of ER) and Renilla reniformis luciferase (index for the transfection efficiency of the plasmids) was carried out using Dual-Glo™ Luciferase Assay System (Promega Corp.) according to the attached protocol. The luminescence intensity of the firefly luciferase was divided by the luminescence intensity of the Renilla reniformis luciferase to calculate a relative light unit (RLU).

[2] = target: T2, ERβ LBD (Homo sapiens, UniProt Q92731); experiment: Ability to bind to ERβ: pBIND-ERβ LBD / GAL4 luciferase reporter in HEK293 cells; type: cell-based; parameters: key: RLU = firefly luminescence / Renilla luminescence; conditions: negative control 0.0118997
T2 construct: host or cells: HEK293
T2 sequence (Q92731 264-498 limits assumed): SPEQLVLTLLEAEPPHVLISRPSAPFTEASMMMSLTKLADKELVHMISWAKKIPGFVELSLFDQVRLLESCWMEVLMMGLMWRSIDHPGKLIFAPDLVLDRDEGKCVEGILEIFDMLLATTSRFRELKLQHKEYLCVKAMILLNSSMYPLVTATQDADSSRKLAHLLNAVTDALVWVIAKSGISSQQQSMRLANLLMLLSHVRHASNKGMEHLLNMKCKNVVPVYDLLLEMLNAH
Protocol: This evaluation system is a system exploiting difference in the sequence of the ligand binding domain (LBD) between ERα and ERβ (J Endocrinol 163: 379-383 (1999)), and enables selective activation of ERβ to be evaluated by determining the binding of a ligand to LBD and the activation of ER.
as §1, §2
as §3, with “This measurement was carried out according to the method described in JP-B-5990058. Specifically,” for “Specifically,”

[3] = target: T3, ERα (Homo sapiens, UniProt P03372); experiment: Ability to activate transcription mediated by ERα (pcDNA3-ERα, pERE luciferase, HEK293 cells); type: cell-based; conditions: negative control 0.004573
T3 construct: host or cells: HEK293
T3 sequence (P03372 1-595): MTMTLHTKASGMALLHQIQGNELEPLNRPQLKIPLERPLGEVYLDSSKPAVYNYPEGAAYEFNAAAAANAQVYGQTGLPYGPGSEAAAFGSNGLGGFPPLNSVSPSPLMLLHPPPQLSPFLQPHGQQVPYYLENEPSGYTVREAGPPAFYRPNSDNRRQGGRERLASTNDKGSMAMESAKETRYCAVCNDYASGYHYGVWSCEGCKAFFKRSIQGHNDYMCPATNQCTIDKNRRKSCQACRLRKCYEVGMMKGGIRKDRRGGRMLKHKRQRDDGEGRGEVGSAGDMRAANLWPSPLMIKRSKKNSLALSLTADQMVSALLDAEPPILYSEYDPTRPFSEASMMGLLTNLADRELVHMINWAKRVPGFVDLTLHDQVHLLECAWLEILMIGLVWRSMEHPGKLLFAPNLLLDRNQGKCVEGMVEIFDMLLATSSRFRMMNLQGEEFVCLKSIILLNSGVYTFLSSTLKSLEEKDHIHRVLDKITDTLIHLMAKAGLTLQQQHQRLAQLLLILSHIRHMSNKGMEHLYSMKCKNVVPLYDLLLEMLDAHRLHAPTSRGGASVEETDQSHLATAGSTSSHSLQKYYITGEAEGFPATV
Protocol: (§4) 1) Experimental Method (Measurement of Transcriptional Activity Mediated by ERs)
(§5) HEK293 cells were inoculated at a cell density of 4.0×10^4 cells/well to a 96-well plate. After 12 hours therefrom, the medium was replaced with a culture solution (DMEM containing 5% (v/v) charcoal-treated serum). The cells were cotransfected with pcDNA3-ERα or pcDNA3-ERβ (Promega Corp.) and pERE and pRL-CMV (Promega Corp.) using Lipofectamine 2000 (Invitrogen Corp.) according to the protocol attached to the product. 24 hours after transfection, the medium was replaced with a culture medium containing a test sample, followed by culture for another 24 hours. Then, luciferase activity was measured using Dual-Glo™ Luciferase Assay System (Promega Corp.) according to the attached protocol. The luminescence intensity of firefly luciferase (index for the ability to activate transcription mediated by ERE) was divided by the luminescence intensity of Renilla reniformis luciferase (index for the transfection efficiency of the plasmids) to calculate a relative light unit (RLU).

[4] = target: T4, ERβ (Homo sapiens, UniProt Q92731); experiment: Ability to activate transcription mediated by ERβ (pcDNA3-ERβ, pERE luciferase, HEK293 cells); type: cell-based; conditions: negative control 0.001475
T4 construct: host or cells: HEK293
T4 sequence (Q92731 whole entry): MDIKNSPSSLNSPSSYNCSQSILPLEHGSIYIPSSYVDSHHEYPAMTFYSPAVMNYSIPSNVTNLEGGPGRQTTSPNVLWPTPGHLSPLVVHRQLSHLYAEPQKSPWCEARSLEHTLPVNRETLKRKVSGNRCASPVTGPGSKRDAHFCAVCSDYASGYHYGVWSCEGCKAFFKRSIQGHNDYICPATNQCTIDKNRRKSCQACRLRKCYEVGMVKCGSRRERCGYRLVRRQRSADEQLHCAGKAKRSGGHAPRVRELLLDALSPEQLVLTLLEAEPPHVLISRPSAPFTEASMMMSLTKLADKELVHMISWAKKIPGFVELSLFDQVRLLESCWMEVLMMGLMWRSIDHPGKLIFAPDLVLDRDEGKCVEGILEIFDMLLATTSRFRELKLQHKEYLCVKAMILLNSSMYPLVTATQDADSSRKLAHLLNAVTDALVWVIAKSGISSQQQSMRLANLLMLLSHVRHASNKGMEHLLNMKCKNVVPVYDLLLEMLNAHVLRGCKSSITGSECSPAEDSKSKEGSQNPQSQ
Protocol: as §4, §5

[5] = system: uterus of ovariectomized rat; experiment: Uterus weight in ovariectomized (OVX) rat; type: in vivo; conditions: 4 μg/kg/day subcutaneous, vs negative solvent group
Protocol: 8-week-old female Crl:CD (SD) rats were obtained from Charles River Laboratories Japan, Inc. and individually identified by the ear punching method on the receipt date. Then, an acclimatization period was established for 1 week. The animals were raised in a rearing room under a set environment involving a temperature of 22±3° C., a humidity of 50±20%, air ventilation from 13 to 17 times/hour, and a lighting time from 8:00 to 20:00. During the acclimatization period, the rats were allowed to freely ingest solid feed CRF-1 (Oriental Yeast Co., Ltd.). Since the feeding with CRF-1, the rats were allowed to freely ingest customized feed AIN-93G (Oriental Yeast Co., Ltd.) free from components derived from soybeans.
On the end date of acclimatization and the following day, the flank cavity was opened under isoflurane anesthesia to harvest the right and left ovaries including fallopian tubes. Other non-OVX rats were subjected to only opening and suture (sham surgery). Immediately thereafter, an antibiotic was subcutaneously administered at a dose of 100 μl/animal. After the surgery, the sham surgery or OVX animals were given customized feed and raised for approximately 1 week.
From 1.5 hours before a shift from the light phase to the dark phase (18:30), a negative solvent (DMSO) or a test substance was subcutaneously administered at a dose of 0.5 ml/kg to the back of the neck according to Table 3 described below using a syringe and an injection needle.
After the completion of all procedures of measurement and analysis, the rats were euthanized by blood letting under isoflurane anesthesia, and the uterus was harvested. Wet weights were measured.
Skin temperatures differed largely among individuals, and the Smirnov-Grubbs test was conducted in order to exclude outliers beforehand. Results of measuring tail skin temperatures and results of measuring uterus weights were statistically analyzed by testing using the Dunnett's test.

Compound	relative light unit (RLU), ligand binding activity ERα ([1]; 0.01 nM)	relative light unit (RLU), ligand binding activity ERα ([1]; 0.1 nM)	relative light unit (RLU), ligand binding activity ERα ([1]; 1 nM)	relative light unit (RLU), ligand binding activity ERα ([1]; 10 nM)	relative light unit (RLU), ligand binding activity ERα ([1]; 100 nM)	relative light unit (RLU), ligand binding activity ERβ ([2]; 0.01 nM)	relative light unit (RLU), ligand binding activity ERβ ([2]; 0.1 nM)	relative light unit (RLU), ligand binding activity ERβ ([2]; 1 nM)	relative light unit (RLU), ligand binding activity ERβ ([2]; 10 nM)	relative light unit (RLU), ligand binding activity ERβ ([2]; 100 nM)	relative light unit (RLU), transcription activation ERα ([3]; 0.1 pM)	relative light unit (RLU), transcription activation ERα ([3]; 1 pM)	relative light unit (RLU), transcription activation ERα ([3]; 10 pM)	relative light unit (RLU), transcription activation ERα ([3]; 100 pM)	relative light unit (RLU), transcription activation ERα ([3]; 1000 pM)	relative light unit (RLU), transcription activation ERα ([3]; 10000 pM)	relative light unit (RLU), transcription activation ERβ ([4]; 0.01 pM)	relative light unit (RLU), transcription activation ERβ ([4]; 0.1 pM)	relative light unit (RLU), transcription activation ERβ ([4]; 1 pM)	relative light unit (RLU), transcription activation ERβ ([4]; 10 pM)	further results
4-(4,4-difluoro-2-(4-hydroxyphenyl)but-3-en-1-yl)-3,5 [Compound 18-F]	0.03608	0.1312	1.177	2.968	3.391	0.6452	2.101	2.317	2.025	2.304	0.01194	0.01337	0.01971	0.04067	0.06395	0.06152	0.003231	0.00681	0.01281	0.03479	relative light unit (RLU), transcription activation ERβ ([4]; 100 pM): 0.03642; relative light unit (RLU), transcription activation ERβ ([4]; 1000 pM): 0.03659; relative light unit (RLU), transcription activation ERβ ([4]; 10000 pM): 0.03706
Oc1ccc(CC(c2ccc(O)cc2)C2CCCCC2)cc1 (stereo not drawn) [Compound 4, 4,4′-(1-cyclohexylethane-1,2-diyl)diphenol]																					melting point: 74 to 76 °C
Oc1ccc(CC(C=C(F)F)c2ccc(O)cc2)cc1 (stereo not drawn) [Compound 7, 4,4′-(4,4-difluorobut-3-ene-1,2-diyl)diphenol]	0.02799	0.0373	0.02919	0.06191	1.588	0.06046	0.9104	1.877	2.074	2.408	0.006825	0.008059	0.008285	0.01621	0.04026	0.04776	0.002068	0.002153	0.00383	0.01191	relative light unit (RLU), transcription activation ERβ ([4]; 100 pM): 0.02336; relative light unit (RLU), transcription activation ERβ ([4]; 1000 pM): 0.03253; relative light unit (RLU), transcription activation ERβ ([4]; 10000 pM): 0.03471
C[C@]12CC[C@@H]3c4ccc(O)cc4CC[C@H]3[C@@H]1CC[C@@H]2O [E2, estradiol, reference compound]																					uterus wet weight (FIG. 6) [5]: significantly increased
